Series [1] relates to ICR mice. Put plainly: Disappearance of righting reflex in mice induced by drugs (single i.v. bolus). Format: in vivo. As to conditions: 100 mg/kg single bolus via tail vein, male ICR mice.
For series [2] the following is noted: background statement; cited from earlier work.
In series [3] the test system is ICR mice. Nature of the series: Effective dose and lethal dose of intravenous administration in mice. To be noted: single bolus via tail vein, male ICR mice. Format: in vivo. As to the method: ICR mice (males, 18-25 g) were randomly grouped and were fast given a single bolus of different doses of test drug via the tail vein, and the lowest dose causing the righting reflex to disappear (effective dose) and the dose causing animal death (lethal dose) were recorded, and the treatment windows (lethal dose/effective dose) were calculated.

Each structure is given as a SMILES string.

For `COC(=O)CC[C@@H]1N=C(c2ccccn2)c2cc(Br)ccc2-n2c(C)cnc21.Cc1ccc(S(=O)(=O)O)cc1` [Remimazolam (p-toluenesulfonate), Remimazolam, reference compound], in the series on ICR mice [1], the “Duration (time from disappearance of righting reflex to recovery)” value is reported as 9.43 min and the “Incubation period (time from start of administration to disappearance of righting reflex)” value came to 0.73 min. In series [2], the “side effects in preclinical animal experiments” value is listed as “limb jitters, head tilting, opisthotonus”. In the series with ICR mice [3], the “Effective dose (lowest dose causing the righting reflex to disappear)” value is 60 mg/kg, the “Lethal dose (dose causing animal death)” value was 220 mg/kg and the “Treatment window (lethal dose/effective dose)” value stood at 3.6.
Turning to `COC(=O)CC[C@@H]1N=C(c2ccccn2)c2cc(Br)ccc2-n2c(C)cnc21.O=S(=O)(O)c1ccccc1` [Remimazolam (besylate), Remimazolam, reference compound], in the series with ICR mice [1], the “Duration (time from disappearance of righting reflex to recovery)” value is recorded as 10.61 min and the “Incubation period (time from start of administration to disappearance of righting reflex)” value is on record as 0.64 min. Further, the “side effects in preclinical animal experiments” value in series [2] is recorded as “limb jitters, head tilting, opisthotonus”. Also, in the series with ICR mice [3], the “Effective dose (lowest dose causing the righting reflex to disappear)” value was determined as 60 mg/kg, the “Lethal dose (dose causing animal death)” value stood at 280 mg/kg and the “Treatment window (lethal dose/effective dose)” value stood at 4.6.

Values taken from patent US11919905B2, “Substituted benzo[f]imidazo[1,2-a][1,4]diazepines as anesthetics” (HANGZHOU ADAMERCK PHARMLABS INC., priority 2017, dated 2024).
